Reference: article PMC5793061, “Functional Expression and Characterization of the Recombinant N-Acetyl-Glucosamine/N-Acetyl-Galactosamine-Specific Marine Algal Lectin BPL3” (Marine Drugs, 2018)

Key:
Format in all cases: binding
rD2BPL3 [1] = target: T1, rD2BPL3 (Bryopsis plumosa, UniProt A0A1J0CRG2); test: inhibition of hemagglutination, human erythrocytes; details: PBS, 4 HU lectin, human type B erythrocytes, two-fold dilutions
T1 construct: artificial tandem repeat of two identical BPL3 domains in one chain, 4-residue linker
T1 sequence (A0A1J0CRG2 29-134): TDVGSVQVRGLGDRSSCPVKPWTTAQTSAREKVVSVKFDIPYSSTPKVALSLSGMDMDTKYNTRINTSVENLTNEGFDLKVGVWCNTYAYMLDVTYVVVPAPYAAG
Description: inhibition of hemagglutination, human erythrocytes on rD2BPL3

native BPL3 [2] = target: T2, native BPL3 (Bryopsis plumosa, UniProt A0A1J0CRG2); test: inhibition of hemagglutination, human erythrocytes; details: PBS, 4 HU lectin, human type B erythrocytes, two-fold dilutions
T2 construct: native purification from alga by GalNAc-agarose, eluted with GlcNAc; not pure, BPL4 band seen; may consist of 2-6 domains
T2 sequence (A0A1J0CRG2 29-134): T1 sequence (A0A1J0CRG2 29-134)
Description: inhibition of hemagglutination, human erythrocytes on native BPL3

rD2BPL3 [3] = target: T1, rD2BPL3; test: glycan microarray, biotinylated lectin, Cy3-streptavidin; details: 50 μg/mL lectin; glycan immobilised through spacer
Description: glycan microarray, biotinylated lectin, Cy3-streptavidin on rD2BPL3

native BPL3 [4] = target: T2, native BPL3; test: as above; details: 50 μg/mL lectin; glycan immobilised through spacer
Description: glycan microarray, biotinylated lectin, Cy3-streptavidin on native BPL3

Molecule | Minimum Inhibitory Concentration / rD2BPL3 (rD2BPL3 [1]) | Minimum Inhibitory Concentration / Native BPL3 (native BPL3 [2]) | RFU (Normalized) / rD2BPL3 (rD2BPL3 [3]) | RFU (Normalized) / Native BPL3 (native BPL3 [4])
CC(=O)N[C@H]1C(O)O[C@H](CO)[C@H](O)[C@@H]1O (stereo partly drawn) [N-acetyl-D-galactosamine] | 31.25 mM | 62.5 mM | – | –
CC(=O)N[C@H]1C(O)O[C@H](CO)[C@@H](O)[C@@H]1O (stereo partly drawn) [N-acetyl-D-glucosamine] | 62.5 mM | 125 mM | – | –
D-Cellose-β-Sp1 [compound 87] | – | – | 1119 RFU | –
GlcNAc-β-1,2-Man-α-Sp [compound 45] | – | – | 1290 RFU | –
α-Fuc-Sp [compound 4] | – | – | 1313 RFU | –
α-Man-Sp [compound 3] | – | – | 1322 RFU | 1025 RFU
